Source: publication PMC4688937, “Heterologous expression of the isopimaric acid pathway in Nicotiana benthamiana and the effect of N-terminal modifications of the involved cytochrome P450 enzyme” (Journal of Biological Engineering, 2015)

Tests used:
[1] = target: T1, diTPS-ISO (Picea abies, UniProt Q675L5); test: transient expression in N. benthamiana leaves, product by GC-MS; settings: endogenous GGPP in leaves, in planta; cyclisation to isopimaradiene
T1 construct: gene TPS-ISO; C-terminal FLAG tag, pEAQ-HT, transiently expressed in Nicotiana benthamiana leaves; own plastid targeting; 92 kDa
T1 sequence (Q675L5 69-867): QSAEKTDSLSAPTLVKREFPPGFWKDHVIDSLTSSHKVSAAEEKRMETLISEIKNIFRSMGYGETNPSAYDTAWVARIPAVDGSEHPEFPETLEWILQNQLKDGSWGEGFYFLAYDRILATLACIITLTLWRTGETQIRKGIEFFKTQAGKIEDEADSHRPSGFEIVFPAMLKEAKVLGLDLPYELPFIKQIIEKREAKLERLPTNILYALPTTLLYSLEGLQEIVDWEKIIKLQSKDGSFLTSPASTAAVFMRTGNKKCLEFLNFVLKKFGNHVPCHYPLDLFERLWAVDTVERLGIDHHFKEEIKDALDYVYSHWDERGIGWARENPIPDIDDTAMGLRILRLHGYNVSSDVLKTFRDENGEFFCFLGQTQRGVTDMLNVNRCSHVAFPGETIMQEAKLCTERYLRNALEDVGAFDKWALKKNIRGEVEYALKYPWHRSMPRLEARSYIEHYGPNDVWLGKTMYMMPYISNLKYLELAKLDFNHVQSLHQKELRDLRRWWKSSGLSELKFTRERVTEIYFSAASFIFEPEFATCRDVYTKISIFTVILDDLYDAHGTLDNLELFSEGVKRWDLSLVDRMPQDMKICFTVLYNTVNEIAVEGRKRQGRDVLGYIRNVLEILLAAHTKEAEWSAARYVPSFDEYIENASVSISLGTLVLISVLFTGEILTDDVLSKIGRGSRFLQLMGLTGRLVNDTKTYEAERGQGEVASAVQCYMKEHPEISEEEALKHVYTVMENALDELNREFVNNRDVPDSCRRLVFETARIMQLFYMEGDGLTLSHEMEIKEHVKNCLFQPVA

[2] = target: T2, CYP720B4 (Picea sitchensis, UniProt E5FA70); test: co-expression with diTPS-ISO in N. benthamiana leaves, GC-MS and LC-MS; settings: in planta, endogenous redox partner
T2 construct: ER; 55 kDa
T2 sequence (E5FA70 entry or part of it): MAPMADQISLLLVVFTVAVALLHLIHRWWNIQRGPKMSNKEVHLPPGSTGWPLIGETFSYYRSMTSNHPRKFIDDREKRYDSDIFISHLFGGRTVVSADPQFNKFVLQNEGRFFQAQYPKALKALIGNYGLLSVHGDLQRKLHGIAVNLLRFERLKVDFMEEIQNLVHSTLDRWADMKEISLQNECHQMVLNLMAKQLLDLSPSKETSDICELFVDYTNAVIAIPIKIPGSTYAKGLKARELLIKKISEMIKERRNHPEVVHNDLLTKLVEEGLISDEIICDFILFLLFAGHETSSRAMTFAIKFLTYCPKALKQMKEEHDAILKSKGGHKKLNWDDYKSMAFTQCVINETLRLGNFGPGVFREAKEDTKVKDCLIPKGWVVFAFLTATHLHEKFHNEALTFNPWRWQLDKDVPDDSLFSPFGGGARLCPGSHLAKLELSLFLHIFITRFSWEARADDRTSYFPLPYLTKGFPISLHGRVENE

[3] = target: T3, ΔTm-CYP720B4 (Picea sitchensis, UniProt E5FA70); test: co-expression with diTPS-ISO, DXS and GGPPs in N. benthamiana leaves, GC-FID and LC-MS; settings: in planta, endogenous redox partner
T3 construct: N-terminal membrane domain (first 37 amino acids) removed, new start Met from primer, FLAG tag, expressed in Nicotiana benthamiana leaves; 51 kDa
T3 sequence (E5FA70 entry or part of it, stated change not applied): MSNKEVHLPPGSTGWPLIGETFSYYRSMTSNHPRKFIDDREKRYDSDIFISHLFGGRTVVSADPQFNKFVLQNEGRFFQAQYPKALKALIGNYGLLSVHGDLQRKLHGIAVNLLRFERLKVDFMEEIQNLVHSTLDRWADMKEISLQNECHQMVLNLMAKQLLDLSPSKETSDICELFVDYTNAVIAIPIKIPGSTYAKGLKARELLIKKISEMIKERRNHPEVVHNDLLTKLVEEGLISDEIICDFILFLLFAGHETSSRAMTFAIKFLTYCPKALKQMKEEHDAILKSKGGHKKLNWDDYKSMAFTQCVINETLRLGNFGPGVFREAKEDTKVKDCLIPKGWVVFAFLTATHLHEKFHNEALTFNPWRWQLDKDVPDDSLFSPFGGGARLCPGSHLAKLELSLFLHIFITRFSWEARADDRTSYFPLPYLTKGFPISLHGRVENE

[4] = target: T4, Tp-Barnes-CYP720B4 (Picea sitchensis, UniProt E5FA70, DEL3-9/V13A, form not given); test: as above; settings: in planta, chloroplast-targeted enzyme
T4 construct: Barnes-modified N-terminus preceded by transit peptide (N-terminal 52 residues of Arabidopsis thaliana ferredoxin FedA, GenBank AY128936), partly processed; FLAG tag; chloroplast-targeted in Nicotiana benthamiana leaves; 60 kDa precursor
T4 sequence (E5FA70 entry or part of it DEL3-9/V13A, form open): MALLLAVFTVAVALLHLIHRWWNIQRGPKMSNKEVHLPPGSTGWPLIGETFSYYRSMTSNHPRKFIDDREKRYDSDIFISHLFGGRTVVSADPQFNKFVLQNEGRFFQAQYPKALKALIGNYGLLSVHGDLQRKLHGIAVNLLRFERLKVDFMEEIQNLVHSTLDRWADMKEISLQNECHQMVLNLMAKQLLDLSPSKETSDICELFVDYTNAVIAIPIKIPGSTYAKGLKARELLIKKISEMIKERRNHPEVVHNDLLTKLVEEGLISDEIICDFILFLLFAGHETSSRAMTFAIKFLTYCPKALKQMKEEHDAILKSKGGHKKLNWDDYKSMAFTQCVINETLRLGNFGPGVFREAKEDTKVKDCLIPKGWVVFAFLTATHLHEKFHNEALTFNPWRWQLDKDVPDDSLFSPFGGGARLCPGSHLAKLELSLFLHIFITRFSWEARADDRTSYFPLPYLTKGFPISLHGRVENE

[5] = target: T5, Barnes-CYP720B4 (Picea sitchensis, UniProt E5FA70, DEL3-9/V13A, form not given); test: as above; settings: in planta, endogenous redox partner
T5 construct: Barnes-modified N-terminus (text: residues 3-9 deleted, V13A); 54 kDa
T5 sequence (E5FA70 entry or part of it DEL3-9/V13A, form open): as above

| Compound | transient expression in N. benthamiana leaves, product by GC-MS [1] | co-expression with diTPS-ISO in N. benthamiana leaves, GC-MS and LC-MS [2] | co-expression with diTPS-ISO, DXS and GGPPs in N. benthamiana leaves, GC-FID and [3] | co-expression with diTPS-ISO, DXS and GGPPs in N. benthamiana leaves, GC-FID and [4] | co-expression with diTPS-ISO, DXS and GGPPs in N. benthamiana leaves, GC-FID and [5] |
| --- | --- | --- | --- | --- | --- |
| CC(C)=CCC/C(C)=C/CC/C(C)=C/CC/C(C)=C/COP(=O)(O)OP(=O)(O)O [GGPP] | The expressed diTPS-ISO is active as confirmed by the formation of isopimaradiene |  |  |  |  |
| C=C[C@@]1(C)CC[C@H]2C(=CC[C@H]3C(C)(C)CCC[C@]23C)C1 [isopimaradiene] | active as confirmed by the formation of isopimaradiene in the infiltrated leaves | Upon co-expression with CYP720B4, isopimaradiene was depleted and isopimaric acid accumulated | CYP720B4 remains active even after complete removal of the transmembrane domain | In contrast, the Tp-Barnes-CYP720B4 was active | Barnes-CYP720B4 activity does not seem to deteriorate after the N-terminal modification |
| C=C[C@@]1(C)CC[C@H]2C(=CC[C@@H]3[C@]2(C)CCC[C@@]3(C)C(=O)O)C1 [isopimaric acid] |  | isopimaradiene was depleted and isopimaric acid accumulated (Fig. 2c, d), indicating efficient conversion |  |  |  |
